“And” between values parts separate entries of the source, which are not always exact repeats. Equal values may be shown once.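 Growth conditions: 96-well plates. Treatment: test compound, 48 hours, 5 concentrations. Analysis: linear interpolation between bracketing concentrations; unreached endpoints set to highest concentration. GI50 marks 50% less growth. The concentration for full growth arrest is given as TGI.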
Experiments:
Test in all cases: inhibition of tumour cell growth, NCI panel, 48 h
[1] = test system: CCRF-CEM leukemia
[2] = test system: HCC-2998 colon
[3] = test system: HS 578T breast
[4] = test system: IGROV1 ovarian
[5] = test system: MOLT-4 leukemia
[6] = test system: NCI-H23 lung
[7] = test system: NCI-H460 lung
[8] = test system: OVCAR-3 ovarian
[9] = test system: SF-295 CNS
[10] = test system: UACC-62 melanoma

Structure (SMILES)	GI50 [1]	TGI [1]	GI50 [2]	TGI [2]	GI50 [3]	TGI [3]	GI50 [4]	TGI [4]	GI50 [5]	TGI [5]	GI50 [6]	TGI [6]	GI50 [7]	TGI [7]	GI50 [8]	TGI [8]	GI50 [9]	TGI [9]	GI50 [10]	TGI [10]
Cn1ccnc1C(=O)/C=C/c1ccc(CC(=O)Nc2ccccc2)cc1	2.37 µM	> 25 µM	4.42 µM	8.96 µM	14.2 µM	> 25 µM	2.11 µM	14.5 µM	4.3 µM	> 25 µM	3.24 µM	11.3 µM	2.32 µM	9.52 µM	1.87 µM	5.37 µM	5.44 µM	16.5 µM	4.13 µM	9.95 µM
OCc1ccc(-c2nn(Cc3ccccc3)c3ccccc23)o1	24.3 µM and 25.5 µM	> 95.9 µM	15.5 µM and 14.8 µM	36.6 µM and 28 µM	17.8 µM and 15.9 µM	> 69.9 µM and 42.4 µM	0.508 µM and 0.288 µM	22.5 µM and > 93.1 µM	–	62.2 µM and 37.4 µM	19.2 µM and 20.9 µM	58.8 µM and 50.8 µM	12.8 µM and 12.2 µM	29.4 µM and 28.5 µM	1.35 µM and 1.71 µM	9.8 µM and 13.4 µM	13.4 µM and 18.5 µM	33.7 µM and 46 µM	0.52 µM and 3.41 µM	16.4 µM and > 44.4 µM
Clc1nc(Cl)c2ncn(Cc3ccc(COc4cccc(OCc5ccc(Cn6cnc7c(Cl)nc(Cl)nc76)cc5)c4)cc3)c2n1	17.2 µM	> 100 µM	17.9 µM	35.8 µM	54.1 µM	> 100 µM	69.4 µM	> 100 µM	8.6 µM	> 100 µM	71.4 µM	> 100 µM	> 100 µM	> 100 µM	10.7 µM	56.6 µM	98.4 µM	> 100 µM	34.7 µM	> 100 µM
C=C1C(=O)O[C@H]2[C@H]1CC/C(COC(=O)N1CCC[C@H]1C(=O)Nc1ccc(OC)c(C(N)=O)c1O)=C\CC[C@@]1(C)O[C@@H]21	1.65 µM	5.95 µM	8.61 µM	23.3 µM	17.9 µM	> 100 µM	2.82 µM	9.13 µM	2.24 µM	5.63 µM	5.44 µM	22.6 µM	11.4 µM	29 µM	1.86 µM	4.48 µM	12.1 µM	27.4 µM	2.39 µM	7.66 µM
CCN(Cc1ccccc1OC)c1ccc(CO)c(Cl)c1	19 µM	60.3 µM	10.7 µM	24.5 µM	13.4 µM	37.2 µM	0.0502 µM	0.337 µM	18.1 µM	46.2 µM	8.96 µM	29.9 µM	0.511 µM	11.6 µM	0.767 µM	4.48 µM	2.71 µM	15.3 µM	0.223 µM	1.79 µM
O=C1/C(=C/c2ccc(O)cc2)COc2ccc(-c3ccccc3)cc21	0.237 µM	–	4.08 µM	11.2 µM	3.79 µM	24.3 µM	6.12 µM	20.8 µM	1.62 µM	> 32.5 µM	12.4 µM	29.6 µM	3.73 µM	15.8 µM	2.49 µM	8.14 µM	6.8 µM	24.7 µM	12.7 µM	25.6 µM
Clc1nc(Cl)c2c(ncn2C/C=C\Cn2cnc3c(Cl)nc(Cl)nc32)n1	0.573 µM	2.57 µM	1.5 µM	3.05 µM	1.44 µM	5.36 µM	0.269 µM	0.771 µM	1.42 µM	3.25 µM	1.72 µM	3.93 µM	2.34 µM	5.65 µM	1.68 µM	3.04 µM	8.99 µM	21.1 µM	1.83 µM	4.09 µM
COC(=O)c1csc(-c2nc(CCNC(=O)OC(C)(C)C)sc2Br)n1	–	> 100 µM	–	> 100 µM	–	> 100 µM	–	> 100 µM	–	> 100 µM	–	> 100 µM	–	> 100 µM	–	> 100 µM	–	> 100 µM	–	> 100 µM
C=C(C)C(=O)O[C@H]1[C@H]2[C@H](OC(=O)[C@H]2C)[C@H](O)[C@@H](C)[C@@H]2C=CC(=O)[C@]21C	–	7.53 µM	–	5.72 µM	–	32.5 µM	–	7 µM	–	7.52 µM	–	15 µM	–	3.72 µM	–	18.4 µM	–	18.7 µM	–	3.84 µM
C[C@H]1[C@H](C)CC[C@]2(C(=O)O)CC[C@]3(C)C(=CC[C@@H]4[C@@]5(C)C/C(=C/c6cccnc6)[C@H](O)C(C)(C)[C@@H]5CC[C@]43C)[C@H]12	6.43 µM	40.8 µM	15.7 µM	43.5 µM	28.8 µM	> 100 µM	26.4 µM	> 100 µM	8.74 µM	58.2 µM	17.4 µM	> 100 µM	8.88 µM	26.6 µM	13.5 µM	31.1 µM	4.83 µM	25.8 µM	11.7 µM	35 µM
COc1ccc2c(c1)OC(N(C(C)=O)C(C)=O)=C(C#N)C2c1ccc(F)cc1 (stereo not drawn)	2.13 µM	> 100 µM	4.93 µM	> 100 µM	5.19 µM	> 100 µM	2.82 µM	> 100 µM	2.66 µM	> 100 µM	4.44 µM	> 100 µM	1.88 µM	45.5 µM	0.676 µM	7.5 µM	2.83 µM	> 100 µM	0.632 µM	> 100 µM

Source: PubChem BioAssay (NCI)
